Test results: patent US20150329558A1, “FUSED HETEROCYCLIC COMPOUNDS AS ION CHANNEL MODULATORS” (Gilead Sciences, Inc., priority 2011, published 2015)
Like-named read-outs stand apart in the source and are kept apart here.

Key:
[1] = target: wild-type human cardiac sodium channel, hNav1.5 (late INa) (Homo sapiens, UniProt Q14524); assay: Late INa screening assay (QPatch whole cell patch clamp); type: cell-based
Procedure, shortened: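 Compounds tested at 1 μM final in extracellular solution against tefluthrin (10 μM)-enhanced late current. Automated patch clamp (23-25° C) on HEK293 expressing alpha subunit alone: −120 mV holding, 250 ms depolarization to −20 mV every 10 s. Read-out is percent inhibition of mean current over 225–250 ms.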

[2] = target: wild-type human cardiac sodium channel, hNav1.5 (peak INa) (Homo sapiens, UniProt Q14524); assay: Peak INa screening assay (tonic and use-dependent block); type: cell-based
wild-type human cardiac sodium channel, hNav1.5 (peak INa), sequence (Q14524 whole entry): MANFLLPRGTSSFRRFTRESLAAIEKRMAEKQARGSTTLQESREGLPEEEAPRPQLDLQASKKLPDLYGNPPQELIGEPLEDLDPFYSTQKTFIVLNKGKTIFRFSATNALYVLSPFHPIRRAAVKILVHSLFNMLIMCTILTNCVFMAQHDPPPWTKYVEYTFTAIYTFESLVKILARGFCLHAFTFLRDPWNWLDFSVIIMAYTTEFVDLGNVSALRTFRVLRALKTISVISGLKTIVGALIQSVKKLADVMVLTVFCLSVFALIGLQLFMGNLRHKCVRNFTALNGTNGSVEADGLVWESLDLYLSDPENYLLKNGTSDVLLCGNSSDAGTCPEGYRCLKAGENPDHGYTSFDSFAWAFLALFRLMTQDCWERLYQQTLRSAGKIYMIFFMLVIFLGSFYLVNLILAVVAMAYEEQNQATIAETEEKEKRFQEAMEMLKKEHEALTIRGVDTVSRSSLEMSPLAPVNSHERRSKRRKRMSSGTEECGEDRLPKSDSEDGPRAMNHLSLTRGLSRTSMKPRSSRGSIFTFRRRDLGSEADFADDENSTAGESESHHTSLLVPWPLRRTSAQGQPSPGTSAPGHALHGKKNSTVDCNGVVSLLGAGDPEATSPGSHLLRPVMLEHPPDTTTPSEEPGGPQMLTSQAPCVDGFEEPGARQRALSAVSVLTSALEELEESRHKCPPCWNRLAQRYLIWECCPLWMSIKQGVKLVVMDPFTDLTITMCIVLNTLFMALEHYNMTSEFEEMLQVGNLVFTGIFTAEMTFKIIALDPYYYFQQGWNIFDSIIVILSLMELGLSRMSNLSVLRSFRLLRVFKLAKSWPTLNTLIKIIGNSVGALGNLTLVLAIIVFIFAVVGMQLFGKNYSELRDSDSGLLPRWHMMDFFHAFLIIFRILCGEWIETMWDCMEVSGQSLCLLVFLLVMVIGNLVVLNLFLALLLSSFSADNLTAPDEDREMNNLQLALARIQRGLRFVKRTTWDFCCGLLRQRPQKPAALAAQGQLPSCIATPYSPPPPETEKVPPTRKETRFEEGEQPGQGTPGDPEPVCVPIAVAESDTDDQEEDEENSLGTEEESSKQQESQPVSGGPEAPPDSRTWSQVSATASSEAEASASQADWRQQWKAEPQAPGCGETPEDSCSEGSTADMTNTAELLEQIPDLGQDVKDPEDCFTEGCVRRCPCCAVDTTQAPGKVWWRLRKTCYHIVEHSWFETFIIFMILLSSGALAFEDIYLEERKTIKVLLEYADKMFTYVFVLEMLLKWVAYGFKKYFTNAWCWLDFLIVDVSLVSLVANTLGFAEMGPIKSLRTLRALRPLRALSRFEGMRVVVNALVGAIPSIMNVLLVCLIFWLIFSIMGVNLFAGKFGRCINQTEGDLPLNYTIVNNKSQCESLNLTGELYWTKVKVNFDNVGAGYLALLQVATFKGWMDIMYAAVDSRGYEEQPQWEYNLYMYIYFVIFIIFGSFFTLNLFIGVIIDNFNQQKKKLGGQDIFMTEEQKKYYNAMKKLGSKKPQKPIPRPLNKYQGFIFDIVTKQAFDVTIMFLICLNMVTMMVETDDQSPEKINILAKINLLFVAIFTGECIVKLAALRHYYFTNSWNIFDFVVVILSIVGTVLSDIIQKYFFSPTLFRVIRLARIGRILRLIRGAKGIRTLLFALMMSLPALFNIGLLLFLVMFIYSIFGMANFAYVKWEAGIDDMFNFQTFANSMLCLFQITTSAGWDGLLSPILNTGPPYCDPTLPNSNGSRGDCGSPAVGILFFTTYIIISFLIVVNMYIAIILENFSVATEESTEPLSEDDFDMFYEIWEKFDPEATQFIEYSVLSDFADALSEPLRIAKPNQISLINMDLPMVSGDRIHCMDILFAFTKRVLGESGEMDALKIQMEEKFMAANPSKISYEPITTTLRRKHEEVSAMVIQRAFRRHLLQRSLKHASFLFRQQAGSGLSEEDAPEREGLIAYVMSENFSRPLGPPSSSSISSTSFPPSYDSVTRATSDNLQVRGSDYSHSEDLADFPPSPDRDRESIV
Experimental: The late sodium current (Late INa) and peak sodium current (Peak INa) assays are performed on an automated electrophysiology platform, QPatch 16× (Sophion Bioscience, Copenhagen, Denmark), which uses the whole cell patch clamp technique to measure currents through the cell membrane of up to 16 cells at a time. The assay uses an HEK293 (human embryonic kidney) cell line heterologously expressing the wild-type human cardiac sodium channel, hNav1.5, purchased from Millipore (Billerica, Mass.). No beta subunits were coexpressed with the Na channel alpha subunit. Cells are maintained with standard tissue culture procedures and stable channel expression is maintained with 400 μg/mL Geneticin in the culture medium. […] Experiments are carried out at 23-25° C. For both the Late INa and Peak INa assays, series resistance compensation is set to 100% and series resistance and whole-cell compensation are performed automatically. Currents are digitized at 25 kHz and low-pass filtered at 12 kHz and 10 kHz for the late and peak INa assays, respectively. Currents through open sodium channels are automatically recorded and stored in the Sophion Bioscience Oracle database (Sophion Bioscience, Copehagen, Denmark). Analysis is performed using QPatch Assay and database software and data are compiled in Excel. Compound stocks are routinely made by the Gilead Sample Bank in plastic vials to 10 mM in dimethyl sulfoxide (DMSO). In some cases, when compounds are not soluble in DMSO, they are made in 100% ethanol. Stocks are sonicated as necessary. […] The intracellular solution used to perfuse the inside of the cells for both the Late INa and Peak INa assays contains: 120 mM CsF, 20 mM CsCl, 5 mM EGTA, 5 mM HEPES and pH adjusted to 7.4 with CsOH. Compounds are diluted in extracellular solution to 1 μM in glass vials and then transferred to glass well plates before robotic addition to the cells. […] Compounds were also evaluated for their effect in several other assays, including their effect on Peak INa. Good separation between the concentrations of test compound to reduce late and peak INa is beneficial to enable separation of the desired effect to reduce late INa-induced electrical and mechanical dysfunction from the undesired effect to reduce peak INa, which can lead to slowing or block of conduction of electrical excitation in the heart. It is contemplated that the compounds of Formula I avoid significant block of peak INa. Since the peak INa in the cells used herein can be very large, introducing artifacts in the recording, the concentration of Na^+ in the bath can be reduced to 20 mM and a nonpermeant cation added to compensate for the Na^+ that was removed to maintain the osmolarity and ionic strength of the solution (see solution details below). Analysis of peak INa generally requires correction for rundown before determining the % block of peak current by the tested compound. […] A low stimulation frequency of 0.1 Hz was used to determine the effect of the test compound when the channel spent most of the time in the resting (closed) state and provides information about Tonic Block (TB). A higher stimulation frequency (3 Hz) was used to measure block of the channel when it spent more time in the activated and inactivated states and provided a measure of Use-Dependent Block (UDB). Use-dependent block refers to the accumulation of block with increased frequency of channel activation. Block of cardiac peak INa by compounds of this invention is increased with an increase in the frequency of stimulation from 0.1 to 1-5 Hz (frequencies encountered either in the normal heart or during tachycardia). It is therefore expected that reduction of peak INa by compounds of this invention will be greater at high heart rates, such as those during tachyarrhythmias, than at normal heart rates. […]

[3] = Microsomal stability assay, rat; type: in vitro ADME; settings: metabolic stability, rat liver microsomes 0.5 mg/mL, substrate 3 uM
Procedure, shortened: (§1)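 Liver microsomes at 0.5 mg/mL protein in 100 mM KPO4 buffer, incubated with 3 uM compound and NADPH-regenerating system, run in duplicate. Samples taken at 2, 12, 25, 45 and 65 min and quenched in MeOH/ACN/water before analysis.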

[4] = Microsomal stability assay, dog; type: in vitro ADME; settings: metabolic stability, dog liver microsomes 0.5 mg/mL, substrate 3 uM
Procedure, shortened: as §1

[5] = Microsomal stability assay, human; type: in vitro ADME; settings: metabolic stability, human liver microsomes 0.5 mg/mL, substrate 3 uM
Procedure, shortened: as §1

[6] = percent block of late INa, compound at 1 μM, 10 μM Tefluthrin, HEK293 hNav1.5, read-out: Late INa 1 μM
[7] = tonic block of peak INa, 0.1 Hz, 1 μM, read-out: Peak TB 1 μM
[8] = use-dependent block of peak INa, 3 Hz, 1 μM, read-out: Peak UDB 1 μM
[9] = % inhibition at 1 μM, read-out: NAv1.5*-LATE-
[10] = % inhibition at 1 μM, tonic block, read-out: NAv1.5*-PEAK-TB-
[11] = % inhibition at 1 μM, use-dependent block 3 Hz, read-out: NAv1.5*-PEAK-UDB-3 HZ-

wild-type human cardiac sodium channel, hNav1.5 (late INa), sequence (Q14524 whole entry): as above

Row | Structure (SMILES) | inhibition at 1 µM [1, 6] [%] | inhibition at 1 µM [2, 7] [%] | inhibition at 1 µM [2, 8] [%] | MS Rat THalf [3] [min] | MS Dog THalf [4] [min] | MS Human THalf [5] [min] | inhibition at 1 µM [1, 9] [%] | inhibition at 1 µM [2, 10] [%] | inhibition at 1 µM [2, 11] [%]
1 | O=c1c2cc(-c3ccc(OC(F)(F)F)cc3)ccc2nnn1CC1(CO)CC1 [II-75, 3-((1-(hydroxymethyl)cyclopropyl)methyl)-6-(4-(trifluoromethoxy)phenyl)benzo[d][1,2,3]triazin-4(3H)-one] | 53 | 11 | 7 | 75 | 85 | 371 | – | – | –
2 | O=c1c2cc(-c3ccc(OC(F)(F)F)cc3)ccc2nnn1Cc1coc(C2CC2)n1 [II-100, 3((2-cyclopropyloxazol-4-yl)methyl)-6-(4-(trifluoromethoxy)phenyl)benzo[d][1,2,3]triazin-4(3H)-one] | 50 | 15 | 2 | 35 | 76 | 52 | – | – | –
3 | COc1ccnc(Cn2ncc3ccc(-c4ccc(OC(F)(F)F)cc4)cc3c2=O)n1 [III-30, 2-((4-methoxypyrimidin-2-yl)methyl)-7-(4-(trifluoromethoxy)phenyl)phthalazin-1 (2H)-one] | 56 | 11 | 12 | 70 | 167 | 205 | – | – | –
4 | O=C(Cc1ccccn1)N1CCc2ccc(-c3ccc(C(F)(F)F)cc3)cc2C1 [IX-29, 2-(pyridin-2-yl)-1-(7-(4-(trifluoromethyl)phenyl)-3,4-dihydroisoquinolin-2(1H)-yl)ethanone] | 45 | 10 | 12 | 48 | 138 | 33 | 45 | 10 | 12
5 | O=C(c1ccccn1)N1CCc2ccc(-c3ccc(C(F)(F)F)cc3)cc2C1 [IX-6, pyridin-2-yl(7-(4-(trifluoromethyl)phenyl)-3,4-dihydroisoquinolin-2(1H)-yl)methanone] | 62 | 28 | 37 | 272 | 313 | 54 | – | – | –
6 | O=c1c2cc(-c3ccc(OC(F)(F)F)cc3)ccc2nnn1Cc1ncccn1 [II-24, 3-(pyrimidin-2-ylmethyl)-6-(4-(trifluoromethoxy)phenyl)benzo[d][1,2,3]triazin-4(3H)-one] | 60 | 19 | 24 | 324 | 219 | > 395 | – | – | –
7 | O=C1c2cc(-c3ccc(C(F)(F)F)cc3)ccc2SCN1Cc1ncccn1 [Compound X-4, 3-(pyrimidin-2-ylmethyl)-6-(4-(trifluoromethyl)phenyl)-2H-benzo[e][1,3]thiazin-4(3H)-one] | 52 | 27 | 25 | 122 | 126 | 103 | – | – | –
8 | O=c1c2cc(-c3ccc(OC(F)(F)F)cc3)ccc2nnn1Cc1ncc(Cl)cn1 [II-4, 3((5-chloropyrimidin-2-yl)methyl)-6-(4-(trifluoromethoxy)phenyl)benzo[d][1,2,3]triazin-4(3H)-one] | 41 | 9 | 4 | 135 | 61 | 270 | – | – | –
9 | Cc1cc(C)n(CC2(Cn3nnc4ccc(-c5ccc(OC(F)(F)F)cc5)cc4c3=O)CC2)n1 [II-64, 3-((1-((3,5-dimethyl-1H-pyrazol-1-yl)methyl)cyclopropyl)methyl)-6-(4-(trifluoromethoxy)phenyl)benzo[d][1,2,3]triazin-4(3H)-one] | 43 | 3 | 9 | 16 | 7 | 11 | – | – | –
10 | C[C@@H]1CC[C@@H](C)N1C(=O)N1CCc2ccc(-c3ccc(C(F)(F)F)cc3)cc2C1 [IX-105] | 43 | 6 | 3 | 14 | 74 | 35 | 43 | 6 | 3
11 | O=c1c2cc(C#Cc3ccc(OC(F)(F)F)cc3)ccc2nnn1CCOc1ncccn1 [VII-1, 3-(2-(pyrimidin-2-yloxy)ethyl)-6-((4-(trifluoromethoxy)phenyl)ethynyl)benzo[d][1,2,3]triazin-4(3H)-one] | 55 | 7 | 1 | 44 | 114 | > 395 | – | – | –
12 | O=C1c2cc(-c3ccc(C(F)(F)F)cc3)ccc2SCN1Cc1ncccc1F [Compound X-6, 3-((3-fluoropyridin-2-yl)methyl)-6-(4-(trifluoromethyl)phenyl)-2H-benzo[e][1,3]thiazin-4(3H)-one] | 69 | 35 | 32 | 46 | 120 | 38 | – | – | –
